Consider 2 compounds from patent US20220354862A1, “LIPOSOME DELIVERY OF PSYCHEDELICS” (Mind Medicine, Inc., priority 2021, published 2022).

By Vss is commonly meant a proportionality between amount in the body and measured concentration, not a real space. The low end stands for confinement near the circulation, the high end for extensive tissue distribution. Broadly, the Cmax is the maximum level reached in the sampled fluid or tissue. The term Tmax denotes the time from dosing to the highest level.

A short description of data set [1]: Pharmacokinetic evaluation in rats after bolus IV administration (noribogaine in plasma). The class given is in vivo, Sprague Dawley rats. The procedure: Pharmacokinetic Evaluation of the Tissue Distribution of Two Test Articles (Noribogaine and BTLS (Brain-Targeted Liposomes)-Noribogaine) in Rats
This study was conducted in adult male Sprague Dawley rats, weighing 250-275 g on arrival. Animals were housed according to the vivarium SOP on a 12-hr light cycle with food and water ad libitum.
72 rats were divided into 12 groups of 6. Test articles were dosed at 10 mg/kg of active substance (generic and liposomal formulation) and administered IV through the tail vein as a bolus. Animals were sampled for 24 hours after administration. Terminal blood and tissue samples (brain, heart, kidney, liver) were collected at 0.08, 0.25, 1, 2, 4 and 8 hours after the dose. The study compared the two groups, noribogaine and BTLS-noribogaine formulation. Concentration of noribogaine in the plasma and tissues was measured ex vivo and pharmacokinetic analysis was performed.

The target of data set [2] is hERG potassium channels (Homo sapiens, UniProt Q12809). The conditions noted are these: high doses; cited from earlier work.
Sequence of hERG potassium channels (Q12809 whole entry): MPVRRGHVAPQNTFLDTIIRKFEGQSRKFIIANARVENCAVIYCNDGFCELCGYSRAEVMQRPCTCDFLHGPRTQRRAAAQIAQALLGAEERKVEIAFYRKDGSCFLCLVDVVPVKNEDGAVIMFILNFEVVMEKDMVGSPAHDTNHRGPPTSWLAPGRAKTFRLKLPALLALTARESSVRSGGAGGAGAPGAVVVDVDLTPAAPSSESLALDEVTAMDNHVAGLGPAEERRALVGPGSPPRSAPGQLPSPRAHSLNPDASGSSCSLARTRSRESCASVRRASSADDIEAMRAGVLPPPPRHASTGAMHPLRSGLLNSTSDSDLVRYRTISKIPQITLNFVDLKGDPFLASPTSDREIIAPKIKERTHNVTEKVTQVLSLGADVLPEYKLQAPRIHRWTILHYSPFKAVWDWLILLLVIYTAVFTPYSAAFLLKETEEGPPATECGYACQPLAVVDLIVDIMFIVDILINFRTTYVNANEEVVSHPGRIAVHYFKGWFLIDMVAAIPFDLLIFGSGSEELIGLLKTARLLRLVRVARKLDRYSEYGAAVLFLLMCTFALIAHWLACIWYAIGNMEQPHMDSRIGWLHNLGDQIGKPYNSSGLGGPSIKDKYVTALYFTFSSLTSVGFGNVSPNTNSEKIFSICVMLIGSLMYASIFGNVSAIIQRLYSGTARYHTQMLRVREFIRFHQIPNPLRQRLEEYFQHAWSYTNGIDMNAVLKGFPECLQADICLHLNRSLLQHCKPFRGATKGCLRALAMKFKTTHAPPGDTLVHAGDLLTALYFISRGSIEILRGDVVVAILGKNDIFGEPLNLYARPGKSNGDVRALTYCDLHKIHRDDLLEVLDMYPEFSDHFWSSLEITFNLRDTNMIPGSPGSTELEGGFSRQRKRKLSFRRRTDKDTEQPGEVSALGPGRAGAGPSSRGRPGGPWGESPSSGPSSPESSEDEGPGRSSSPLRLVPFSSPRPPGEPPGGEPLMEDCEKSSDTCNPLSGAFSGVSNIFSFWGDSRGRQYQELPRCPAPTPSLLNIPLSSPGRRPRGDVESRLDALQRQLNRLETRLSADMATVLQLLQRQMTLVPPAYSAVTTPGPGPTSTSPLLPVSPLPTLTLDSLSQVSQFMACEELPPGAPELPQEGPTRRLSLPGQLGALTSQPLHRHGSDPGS
Data set [3] concerns heroin addict. The conditions noted are these: oral, cited from earlier work.

On to `CC[C@H]1C[C@H]2C[C@H]3c4[nH]c5ccc(O)cc5c4CCN(C2)[C@@H]13` [NOR, noribogaine], for which, in data set [1] (rat), the Cl came out at 0.0064 mL/h and the Vss is 0.0119 mL. In addition, in data set [1] (rat plasma), the Cmax was 223.6 ng/mL, the T_half came to 1.4558 h and the Tmax is 30 min. Moreover, the “Cardiotoxicity: long QT syndrome / hERG block” value in data set [2] was “cause long QT syndrome by blocking hERG potassium channels”.

Turning to ibogaine, the “Treatments effective, share of cases” value in data set [3] (6 mg/kg to 19 mg/kg) is 71%. In data set [3] (series of 4 treatments), the “Duration of effect of a series of 4 treatments” value is “approximately 3 years”. Further, the “Duration of effect of a single treatment” value in data set [3] (single treatment) was “about 6 months”. For the same compound, in data set [3], the minimum effective dose was 400 mgs.
